The source of these data is patent publication US20230203056A1, “HETEROCYCLIC COMPOUNDS” (Hoffmann-La Roche Inc., priority 2020, published 2023).

pIC50: −log10 of the molar value.

For this test, the target named is T1, MAGL (Homo sapiens, UniProt Q99685).
T1 sequence (Q99685 1-303): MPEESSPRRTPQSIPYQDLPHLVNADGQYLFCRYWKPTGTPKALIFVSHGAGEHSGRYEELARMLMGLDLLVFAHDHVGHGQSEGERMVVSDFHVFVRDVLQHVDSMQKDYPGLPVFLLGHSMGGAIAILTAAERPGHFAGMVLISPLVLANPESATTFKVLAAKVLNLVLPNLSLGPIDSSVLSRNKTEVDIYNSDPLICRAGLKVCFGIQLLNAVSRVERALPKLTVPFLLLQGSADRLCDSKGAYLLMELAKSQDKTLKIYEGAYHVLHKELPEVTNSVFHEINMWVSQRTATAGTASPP
Put plainly: 2-AG assay: MAGL inhibitory activity, hydrolysis of 2-arachidonoylglycerol to arachidonic acid followed by mass spectrometry. The format is biochemical. The note with it: 50 pM MAGL, 8 μM 2-arachidonoylglycerol, 15 min preincubation, 30 min incubation at RT. On the procedure: Compounds were profiled for MAGL inhibitory activity by determining the enzymatic activity by following the hydrolysis of the natural substrate 2-arachidonoylglycerol resulting in arachidonic acid, which can be followed by mass spectrometry. This assay is hereinafter abbreviated “2-AG assay”.
The 2-AG assay was carried out in 384 well assay plates (PP, Greiner Cat #784201) in a total volume of 20 μL. Compound dilutions were made in 100% DMSO (VWR Chemicals 23500.297) in a polypropylene plate in 3-fold dilution steps to give a final concentration range in the assay from 12.5 μM to 0.8 pM. 0.25 μL compound dilutions (100% DMSO) were added to 9 μL MAGL in assay buffer (50 mM TRIS (GIBCO, 15567-027), 1 mM EDTA (Fluka, 03690-100 mL), 0.01% (v/v) Tween. After shaking, the plate was incubated for 15 min at RT. To start the reaction, 10 μL 2-arachidonoylglycerol in assay buffer was added. The final concentrations in the assay was 50 pM MAGL and 8 μM 2-arachidonoylglyerol. After shaking and 30 min incubation at RT, the reaction was quenched by the addition of 40 μL of acetonitrile containing 4 μM of d8-arachidonic acid. The amount of arachidonic acid was traced by an online SPE system (Agilent Rapidfire) coupled to a triple quadrupole mass spectrometer (Agilent 6460). A C18 SPE cartridge (G9205A) was used in an acetonitrile/water liquid setup. The mass spectrometer was operated in negative electrospray mode following the mass transitions 303.1→259.1 for arachidonic acid and 311.1→267.0 for d8-arachidonic acid. The activity of the compounds was calculated based on the ratio of intensities [arachidonic acid/d8-arachidonic acid].
With `O=C(N1CC(OCc2ccc(C(F)(F)F)cc2F)C1)N1C[C@@H]2CCc3cn[nH]c3[C@@H]2C1` (racemic) [Example 1, [3-[[2-Fluoro-4-(trifluoromethyl)phenyl]methoxy]azetidin-1-yl]-[rac-(5aR,8aS)-4,5,5a,6,8,8a-hexahydro-1H-pyrrolo[3,4-g]indazol-7-yl]methanone], the pIC50 was 8.10.

For `O=C(N1CC(OCc2ccc(C(F)(F)F)cc2F)C1)N1C[C@@H]2COc3cn[nH]c3[C@@H]2C1` (racemic) [Example 2, [3-[[2-Fluoro-4-(trifluoromethyl)phenyl]methoxy]azetidin-1-yl]-[rac-(1S,9R)-7-oxa-3,4,11-triazatricyclo[7.3.0.0^2,6]dodeca-2(6),4-dien-1l-yl]methanone], the pIC50 was 7.17.

Turning to `O=C(N1C[C@@H]2COc3cn[nH]c3[C@@H]2C1)N1CC2(CC(Cc3ccc(F)cc3F)C2)C1` (single isomer, unassigned) [Example 5, (−)- or (+)-[6-[(2,4-Difluorophenyl)methyl]-2-azaspiro[3.3]heptan-2-yl]-[(1S,9R)-7-oxa-3,4,11-triazatricyclo[7.3.0.0^2,6]dodeca-2(6),4-dien-1l-yl]methanone], the pIC50 is 6.31.

The molecule `O=C(N1C[C@H]2COc3cn[nH]c3[C@H]2C1)N1CC2(CC(Cc3ccc(F)cc3F)C2)C1` (single isomer, unassigned) [Example 6, (+)- or (−)-[6-[(2,4-Difluorophenyl)methyl]-2-azaspiro[3.3]heptan-2-yl]-[(1R,9S)-7-oxa-3,4,11-triazatricyclo[7.3.0.0^2,6]dodeca-2(6),4-dien-11-yl]methanone] had a pIC50 of 8.05.

Turning to `O=C(N1CC(OCc2ccc(C(F)(F)F)cc2F)C1)N1C[C@@H]2CCc3nn[nH]c3[C@@H]2C1` (single isomer, unassigned) [Example 7, (−)- or (+)-[3-[[2-Fluoro-4-(trifluoromethyl)phenyl]methoxy]azetidin-1-yl]-[(5aR,8aS)-4,5,5a,6,8,8a-hexahydro-1H-pyrrolo[3,4-e]benzotriazol-7-yl]methanone], the pIC50 was 7.30.

Consider `O=C(N1CC(OCc2ccc(C(F)(F)F)cc2F)C1)N1C[C@H]2CCc3nn[nH]c3[C@H]2C1` (single isomer, unassigned) [Example 8, (+)- or (−)-[3-[[2-Fluoro-4-(trifluoromethyl)phenyl]methoxy]azetidin-1-yl]-[(5aS,8aR)-4,5,5a,6,8,8a-hexahydro-1H-pyrrolo[3,4-e]benzotriazol-7-yl]methanone], for which the pIC50 was 6.28.

Regarding `O=C(N1CC(OCc2ccc(C(F)(F)F)cc2F)C1)N1C[C@@H]2OCc3nn[nH]c3[C@@H]2C1` (single isomer, unassigned) [Example 9, (−)- or (+)-[3-[[2-Fluoro-4-(trifluoromethyl)phenyl]methoxy]azetidin-1-yl]-[(1S,9R)-8-oxa-3,4,5,11-tetrazatricyclo[7.3.0.02,6]dodeca-2(6),4-dien-11-yl]methanone], the negative logarithm of the IC50 (pIC50) is 5.57.

With `O=C(N1CC(OCc2ccc(C(F)(F)F)cc2F)C1)N1C[C@@H]2c3[nH]nnc3CO[C@@H]2C1` (single isomer, unassigned) [Example 10, (+)- or (−)-[3-[[2-Fluoro-4-(trifluoromethyl)phenyl]methoxy]azetidin-1-yl]-[(1R,9S)-8-oxa-3,4,5,11-tetrazatricyclo[7.3.0.02,6]dodeca-2(6),4-dien-1l-yl]methanone], the pIC50 is 5.91.

`O=C(N1CC(c2ccc(C3(C(F)(F)F)CC3)cc2)C1)N1C[C@@H]2COc3cn[nH]c3[C@@H]2C1` [Example 3, (−)- or (+)-[(1S,9R)-7-Oxa-3,4,11-triazatricyclo[7.3.0.0^2,6]dodeca-2(6),4-dien-11-yl]-[3-[4-[1-(trifluoromethyl)cyclopropyl]phenyl]azetidin-1-yl]methanone]: the pIC50 is 7.89.

`O=C(N1CC(c2ccc(C3(C(F)(F)F)CC3)cc2)C1)N1C[C@H]2COc3cn[nH]c3[C@H]2C1` [Example 4, (+)- or (−)-[(1R,9S)-7-Oxa-3,4,11-triazatricyclo[7.3.0.0^2,6]dodeca-2(6),4-dien-11-yl]-[3-[4-[1-(trifluoromethyl)cyclopropyl]phenyl]azetidin-1-yl]methanone] had a pIC50 of 6.04.

Broadly, the pIC50 is the IC50 on a negative log10 scale, so that one unit is a factor of ten.
